What was measured:
Hepatitis C virus [1] = test: Antiviral activity against HCV genotype 2a JFH/JC1 infected in human Huh7.5 cells assessed as inhibition of viral RNA replication after 72 hrs by qRT-PCR analysis; assay type: functional, organism-based, Hepacivirus hominis; settings: subtype 2a JFH/JC1, Huh7.5, 72 h
[2] = molecular target: T1, CD81 antigen (Homo sapiens) (UniProt P60033); test: Binding affinity to CD81 (unknown origin) assessed as disruption of interaction between CD81 the HCV envelope protein E2 at 5 uM by surface plasmon resonance assay relative to untreated control
T1 sequence (whole entry): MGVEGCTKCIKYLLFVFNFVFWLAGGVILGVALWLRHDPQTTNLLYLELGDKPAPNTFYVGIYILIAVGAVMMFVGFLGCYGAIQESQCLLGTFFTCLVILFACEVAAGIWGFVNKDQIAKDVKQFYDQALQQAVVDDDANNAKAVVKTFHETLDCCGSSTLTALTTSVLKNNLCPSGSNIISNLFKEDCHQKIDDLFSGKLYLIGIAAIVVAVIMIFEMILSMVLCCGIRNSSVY

CD81 antigen = molecular target: T2, CD81 antigen (Homo sapiens, UniProt P60033); test: Binding affinity to CD81 (unknown origin) by surface plasmon resonance assay
T2 sequence (P60033 whole entry): T1 sequence (whole entry)

[3] = molecular target: T1, CD81 antigen (Homo sapiens); test: Binding affinity to CD81 (unknown origin) assessed as association rate constant by surface plasmon resonance assay
[4] = Selectivity index, ratio of CC50 for human Huh7.5 cells to EC50 for antiviral activity against HCV genotype 2a JFH/JC1 infected in human Huh7.5 cells; assay type: toxicity, cell-based; settings: read-out: Ratio CC50/EC50
Hepatitis C virus [5] = test: Antiviral activity against HCV pseudoparticles infected in human Huh7.5 cells infected with HCV pseudoparticles expressed in 293T cells with plasmid encoding HCV E1, E2, envelope and Vpr deficient HIV vector carrying luciferase reporter gene inserted into Nef position assessed as inhibition of pseudoparticle entry after 72 hrs by luciferase reporter gene assay; assay type: functional, organism-based, Hepacivirus hominis; settings: for inhibition: Hepacivirus hominis
[6] = Cytotoxicity against human Huh7.5 cells after 72 hrs by MTT assay; assay type: cell-based

SMILES	EC50 (Hepatitis C virus [1]) [µM]	Ratio [2]	Kd (CD81 antigen) [µM]	Ka [3] [M⁻¹ s⁻¹]	selectivity ratio [4]	IC50 (Hepatitis C virus [5]) [µM]	inhibition (Hepatitis C virus [5])	CC50 at 72 h [6] [µM]
CC(=O)[C@@H]1C[C@H](C(=O)O)[C@@]1(C)CC/C=C(\C)C(=O)O	24.5	33	0.0378	5.33e+06	3	35.5	Dose-dependent effect	75.3
CCC[C@H](NC(=O)[C@@H]1[C@H]2CCC[C@H]2CN1C(=O)[C@@H](NC(=O)[C@@H](NC(=O)c1cnccn1)C1CCCCC1)C(C)(C)C)C(=O)C(=O)NC1CC1 [TELAPREVIR]					491			26.5
CC(C)OC(=O)[C@H](C)NP(=O)(OC[C@H]1O[C@@H](n2ccc(=O)[nH]c2=O)[C@](C)(F)[C@@H]1O)Oc1ccccc1 (stereo not given in full)	0.06				> 3120			> 200
C/C(=C\CC[C@]1(C)[C@@H](C(=O)O)C[C@H]1[C@](C)(O)C(=O)O)C(=O)O	20.4		0.0665	3.81e+07	4	42.9	Dose-dependent effect	74.3

From ChEMBL document CHEMBL4330116, “Harzianoic acids A and B, new natural scaffolds with inhibitory effects against hepatitis C virus” (Bioorg Med Chem, 2019)
